What was measured:
Format in all cases: cell-based
AML3 = experiment: CellTiter-Glo cell viability, AML3 leukemia cell line; settings: Table 5
Method: (§1) Cell growth inhibitory activity of representative Compounds of the Disclosure was determined using the CellTiter-Glo® Luminescent Cell Viability Assay. Cells were seeded in 384-well white opaque cell culture plates at a density of 2,000 cells/well with serially diluted compounds and incubated at 37° C. in an atmosphere of 95% air and 5% CO2 for 4 days. Cell viability was determined using the CellTiter-Glo® Luminescent Cell Viability Assay Kit (Promega, Madison, Wis.) according to the manufacture's instruction. Briefly, a volume of CellTiter-Glo® Reagent equal to the volume of cell culture medium was added to each well, and then the plates were incubated at room temperature for 10-20 minutes. The luminescent signal was measured using a Tecan Infinite M1000 multimode microplate reader (Tecan, Morrisville, N.C.). The half maximal inhibitory concentration (IC50) was calculated using the GraphPad Prism 5 software (GraphPad Software, La Jolla, Calif.).
(§2) Cpd. Nos. 18 and 19 were tested in various leukemia cell lines using the CellTiter-Glo® Luminescent Cell Viability Assay as described in Example 35.

BRD4 = molecular target: T1, BRD4 (Homo sapiens, UniProt O60885); experiment: Western blot, degradation of BRD4 in RS4;11 cells; settings: 2.5 h, as compared to Compound A, FIG. 1
T1 construct: Collected cells were lysed in lysis buffer; endogenous in cells; host or cells: RS4;11 and MOLM-13 leukemia cells
Method: (§3) Cells were treated with compounds at the indicated concentrations for 2.5 h and 3 h, respectively, for RS4;11 (see FIG. 1) and MOLM-13 (see FIG. 2) cells. Compound A is ((S)-3-benzyl-6,9-dimethyl-2-((1-methyl-1H-pyrazol-4-yl)ethynyl)-4H,6H-thieno[2,3-e][1,2,4]triazolo[3,4-c][1,4]oxazepine). See Cpd. No. 85 of U.S. Appl. No. 62/295,271.
(§4) Collected cells were lysed in lysis buffer [1% CHAPS, 150 mM NaCl, 20 mM Tris-HCl, 1 mM. EDTA, 1 mM EGTA, and COMPLETE proteinase inhibitor (Roche)] for 30 minutes on ice. Protein concentrations were determined using the Bio-Rad Protein Assay Dye reagent. Whole tumor lysates (20 μg) were separated on a 4-20% Novex gels (Invitrogen). The separated proteins were transferred to a PVDF membrane (BIO-RAD) and the PVDF membrane was then blotted with 5% Blotting-Grade Blocker (BIO-RAD) for 1 hour at room temperature. The primary antibodies used were BRD4 rabbit polyclonal antibody [Bethyl Laboratories, Inc, cat #A301] and BRD2 antibody.
(§5) The BIO-RAD Clarity Western ECL Substrates (BIO-RAD) and HyBlot CL film (Denville) were used for signal development and detection using a SRX-101A tabletop processor (Konica Minolta).

MDA-MB-436 = experiment: WST-8 cell growth inhibition assay, MDA-MB-436; settings: Homo sapiens, WST-8, Table 6
Method: (§6) Cpd. Nos. 7 and 18 were tested in various triple-negative breast cancer cell lines using the WST-8 cell growth assay.

BRD2 = molecular target: T2, BRD2 (Homo sapiens, UniProt P25440); experiment: Western blot, degradation of BRD2 in RS4;11 cells; settings: 2.5 h, as compared to Compound A, FIG. 1
T2 construct: endogenous in cells; host or cells: RS4;11 and MOLM-13 leukemia cells
Method: as §3, §4, §5

MonoMac6 = experiment: CellTiter-Glo cell viability, MonoMac6 leukemia cell line; settings: Homo sapiens, MONO-MAC-6, Table 5
Method: as §1, §2

MDA-MB-453 = experiment: WST-8 cell growth inhibition assay, MDA-MB-453; settings: Homo sapiens, WST-8, Table 6
Method: as §6

MDA-MB-231 [1] = experiment: CellTiter-Glo cell growth inhibition, MDA-MB-231; settings: Homo sapiens, MDA-MB-231, 96 h, 4 days, Table 4
Method in brief: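 Cells seeded at 2,000 cells/well with serially diluted compound and incubated 4 days at 37 °C, 5% CO2. Viability read by CellTiter-Glo luminescence after 10-20 min at room temperature; IC50 calculated from the dose-response.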

MDA-MB-231 [2] = experiment: WST-8 cell growth inhibition assay, MDA-MB-231; settings: Homo sapiens, WST-8, Table 6
Method: as §6

HBL100 = experiment: WST-8 cell growth inhibition assay, HBL100; settings: Homo sapiens, HBL-100; WST-8, Table 6
Method: as §6

MV4; 11 = experiment: CellTiter-Glo cell viability, MV4;11 leukemia cell line; settings: Homo sapiens, Table 5
Method: as §1, §2

KG1 = experiment: CellTiter-Glo cell viability, KG1 leukemia cell line; settings: Homo sapiens, KG-1, Table 5
Method: as §1, §2

T2 sequence (P25440 whole entry): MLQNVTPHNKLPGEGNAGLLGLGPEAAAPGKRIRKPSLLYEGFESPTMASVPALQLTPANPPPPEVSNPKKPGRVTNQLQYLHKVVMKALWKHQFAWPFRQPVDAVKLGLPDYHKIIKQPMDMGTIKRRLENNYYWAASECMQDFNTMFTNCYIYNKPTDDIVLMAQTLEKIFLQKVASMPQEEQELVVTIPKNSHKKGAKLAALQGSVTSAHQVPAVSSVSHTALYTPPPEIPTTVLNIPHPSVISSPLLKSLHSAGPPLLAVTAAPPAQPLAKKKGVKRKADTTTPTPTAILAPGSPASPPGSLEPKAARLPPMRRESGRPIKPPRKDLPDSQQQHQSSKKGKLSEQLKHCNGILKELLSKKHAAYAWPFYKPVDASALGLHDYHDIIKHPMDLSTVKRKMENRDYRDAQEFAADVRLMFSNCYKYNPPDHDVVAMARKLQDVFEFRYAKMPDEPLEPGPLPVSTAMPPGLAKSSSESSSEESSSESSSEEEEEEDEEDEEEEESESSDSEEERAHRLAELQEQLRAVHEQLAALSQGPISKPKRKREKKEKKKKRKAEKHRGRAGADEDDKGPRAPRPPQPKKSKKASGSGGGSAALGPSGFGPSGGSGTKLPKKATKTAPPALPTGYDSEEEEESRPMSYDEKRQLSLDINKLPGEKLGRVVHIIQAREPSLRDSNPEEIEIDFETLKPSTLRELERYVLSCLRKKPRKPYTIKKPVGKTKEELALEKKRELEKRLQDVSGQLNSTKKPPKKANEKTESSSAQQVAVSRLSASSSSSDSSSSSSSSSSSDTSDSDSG

IC50 (AML3): 0.03 ± 0.006 nM
degradation of BRD4 protein (Western blot) (BRD4): induce degradation
IC50 (MDA-MB-436): 1.52 ± 0.21 nM
degradation of BRD2 protein (Western blot) (BRD2): induce degradation
IC50 (MonoMac6): 0.014 ± 0.004 nM
IC50 (MDA-MB-453): 0.25 ± 0.04 nM
IC50 (MDA-MB-231 [1]): 1.5 nM
IC50 (MDA-MB-231 [2]): 0.76 ± 0.08 nM
IC50 (MV4; 11): 0.06 ± 0.006 nM
IC50 (KG1): 0.047 ± 0.02 nM
SMILES: Cc1nnc2n1-c1sc(C#Cc3cnn(CCCC#Cc4cccc5c4CN(C4CCC(=O)NC4=O)C5=O)c3)c(Cc3ccccc3)c1CO[C@H]2C (stereo partly drawn) [Cpd. No. 18, 3-(4-(5-(4-(((S)-3-benzyl-6,9-dimethyl-4H,6H-thieno[2,3-e][1,2,4]triazolo[3,4-c][1,4]oxazepin-2-yl)ethynyl)-1H-pyrazol-1-yl)pent-1-yn-1-yl)-1-oxoisoindolin-2-yl) piperidine-2,6-dione]
IC50 (HBL100): 0.84 ± 0.14 nM
